Measurements taken from publication PMC4357015, “Structure, Function and Inhibition of the Phosphoethanolamine Methyltransferases of the Human Malaria Parasites Plasmodium vivax and Plasmodium knowlesi” (Scientific Reports, 2015).

Biological target: T1, PvPMT (Plasmodium vivax, UniProt A5K867)
T1 sequence (A5K867 1-264): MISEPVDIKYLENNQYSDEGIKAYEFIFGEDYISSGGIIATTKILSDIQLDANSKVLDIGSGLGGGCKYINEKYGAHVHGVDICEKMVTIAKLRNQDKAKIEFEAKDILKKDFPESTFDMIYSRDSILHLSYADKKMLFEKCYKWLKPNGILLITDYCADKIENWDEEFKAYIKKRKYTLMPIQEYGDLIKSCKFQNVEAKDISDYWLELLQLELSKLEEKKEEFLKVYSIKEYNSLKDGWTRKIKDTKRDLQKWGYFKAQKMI
Test: radiometric PMT transmethylation assay, inhibition of PvPMT
Format: biochemical
Conditions: P-Etn 2 mM, SAM 1.5 mM; inhibitor 0, 100, 500, 1000 μM; read-out: IC50, inhibition of PvPMT activity
Description: Figure 3 Amodiaquine (AQ) and NSC158011 inhibit the activity of PvPMT and PkPMT. Enzyme inhibition assays with different concentrations of Amodiaquine (AQ), NSC158011 and Chloroquine (CQ) were carried out at constant P-Etn (2 mM) and SAM (1.5 mM) concentrations. The activity in the absence of any drug was taken as 100% and % enzyme activity was calculated in the presence of different drug concentrations (100, 500, 1000 μM). To determine the concentration that results in 50% inhibition of enzyme activity (IC50), the data were fitted to a non-linear regression analysis in the following equation Y = 100/(1 + ([X]/IC50)), where Y is % enzyme activity and X is drug concentration using Graph pad software.
For enzyme kinetics studies recombinant histidine-tagged proteins were expressed using 1 mM IPTG for 4 h, purified using Ni-affinity purification and dialyzed. As expected, purified proteins migrated in SDS-PAGE gels at approximately 31 kDa. The purified proteins were stored in HEPES-KOH buffer (pH 7.4) at 4°C and were assayed within a month of purification. During this time, the integrity of the protein was assessed by SDS-PAGE. The kinetic properties of enzymes were assessed using radiometric assay wherein incorporation of radioactive labeled methyl donor (100nCi [methyl-^14C] SAM, Perkin elmer NEC363010UC) or (200nCi [methyl-^3H] SAM, Perkin Elmer NET155H250UC) was measured. […]

CCN(CC)Cc1cc(Nc2ccnc3cc(Cl)ccc23)ccc1O [AQ, amodiaquine]
IC50: 220 µM
